Experimental data reported in PMC9698483, “Berbamine Reduces Chloroquine-Induced Itch in Mice through Inhibition of MrgprX1” (International Journal of Molecular Sciences, 2022).
Where “and” joins values, the source holds several entries; their conditions need not be identical. Identical values can stand only once.

Columns and labels:
[1] = test system: ERK1/2 phosphorylation through MrgprX1; assay: Immunoblot of ERK1/2 phosphorylation in HEK293T cells expressing MrgprX1; type: cell-based, human; settings: HEK-MrgprX1 cells, 10 μM BBM for 10 min prior to CQ
MrgprA3 = target: T1, MrgprA3 (Mus musculus, UniProt Q91WW3); assay: Intracellular calcium measurement in HEK293T cells expressing mouse MrgprA3; type: cell-based; settings: pretreated 10 min prior to 300 μM CQ; read-out: IC50 of inhibition of CQ-induced MrgprA3 activation
T1 construct: expressed in transfected cells; host or cells: HEK293T
T1 sequence (Q91WW3 1-302): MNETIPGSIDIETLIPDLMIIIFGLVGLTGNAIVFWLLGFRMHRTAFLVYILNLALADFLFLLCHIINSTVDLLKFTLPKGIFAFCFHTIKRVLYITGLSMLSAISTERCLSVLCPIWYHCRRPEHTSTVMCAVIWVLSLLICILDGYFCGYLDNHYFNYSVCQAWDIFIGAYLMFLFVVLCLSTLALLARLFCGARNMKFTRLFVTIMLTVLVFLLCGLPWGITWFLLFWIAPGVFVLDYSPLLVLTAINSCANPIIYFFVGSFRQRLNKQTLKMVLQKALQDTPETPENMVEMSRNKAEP
Description: MRGPRA3 and MRGPRC11 are mouse orthologs of human MRGPRX1, and MrgprA3 is also activated by CQ, resulting in CQ-induced pruritus. To investigate the inhibitory effect of berbamine on MrgprA3, we established HEK293T cells overexpressing MrgprA3. […] We further investigated whether berbamine inhibited CQ-induced ERK1/2 phosphorylation in HEK-MrgprA3 cells. Strong and significant ERK1/2 phosphorylation was observed following CQ application, and ERK1/2 phosphorylation peaked 5 min after CQ treatment (Figure 6A,B).
Figure 5 Effect of berbamine on CQ-induced activation of MrgprA3: (A) Intracellular calcium levels were measured in HEK293T cells expressing mouse MrgprA3. Cells were treated with indicated concentrations of CQ. (B) Summary of dose–response (mean ± S.E., n = 6). (C) Cells were pretreated with indicated concentrations of berbamine for 10 min prior to 300 μM CQ treatment. (D) Summary of dose-response (mean ± S.E., n = 6). (E) Representative traces of intracellular calcium responses to BAM8−22 in HEK293T cells expressing MrgprC11. […]
Intracellular calcium levels were measured using a Fluo-4 NW calcium assay kit (Invitrogen, Carlsbad, CA) as per the manufacturer’s protocol in HEK293T and HT29 cells. […] After 1 h of incubation, Fluo-4 fluorescence was recorded with a FLUOstar Omega microplate reader equipped with syringe pumps and custom Fluo-4 excitation/emission filters (485/538 nm). […]

[2] = test system: ERK1/2 phosphorylation through MrgprA3; assay: Immunoblot of ERK1/2 phosphorylation in HEK293T cells expressing MrgprA3; type: cell-based, mouse; settings: HEK-MrgprA3 cells, 30 μM BBM for 10 min prior to CQ
CQ-induced pruritus = CQ-induced pruritus mouse model (scratching bouts); type: in vivo, BALB/c mice; settings: 30 mg/kg intraperitoneally, 30 min before s.c. CQ (400 µg/50 µL), 30 min recording
Description: To investigate the antipruritic effect of berbamine, we observed the effect of berbamine on pruritogen-induced scratching behavior in BALB/c mice. Mice were transferred to clear cages and treated with berbamine intraperitoneally after a 30 min acclimatization period. Mouse behavior was recorded for 30 min right after the subcutaneous injection of pruritogens to the nape 30 min after berbamine treatment (Figure 7A). […] We further investigated the effect of berbamine on pruritus caused by other pruritogens.
Figure 7 Effect of berbamine on acute pruritogen-induced pruritus in mice: (A) Scheme of acute pruritogen-induced pruritus mouse model. […] Statistical significance of differences between each group and CQ group was assessed using one-way ANOVA with Tukey’s post hoc test. * p < 0.05, ** p < 0.01, *** p < 0.001. […] Statistical significance of differences was determined using Student’s t-test. […]
[…] six-week-old BALB/c male mice were purchased from DBL (Chungcheong-do, Republic of Korea), and an additional 1 week was given for accommodation. […] After 30 min, pruritogen compounds (i.e., CQ, histamine, PAR2-AP, and DCA) were subcutaneously administered into the nape, and scratching bouts were recorded for 30 min. […] The total number of scratching bouts was counted by recording the number of scratching bouts in the recorded video over 30 min of observation time.

COc1cc2c3cc1Oc1c(OC)c(OC)cc4c1[C@@H](Cc1ccc(O)c(c1)Oc1ccc(cc1)C[C@@H]3N(C)CC2)N(C)CC4 [berbamine]
effect on CQ-induced ERK1/2 phosphorylation [1]: significantly reduced
IC50 (MrgprA3): 2900 nM
effect on CQ-induced ERK1/2 phosphorylation through MrgprA3 [2]: significantly reduced
attenuation of CQ-induced pruritus (total scratching bouts) (CQ-induced pruritus): 80% and ~ 80%
